ChEMBL document CHEMBL1129859, “Synthesis and antibacterial activity of (1R, 5R, 6R)-2-tert-butyl-6-(1-hydroxyethyl)penem-3-carboxylic acid” (Bioorg Med Chem Lett, 1997)
Values after ≈ are worked out from the molar mass of the structure shown.

How the values were obtained:
Escherichia coli [1] = assay: Tested in vitro for the antibacterial activity against Escherichia coli strain TEM; assay type: functional
Staphylococcus aureus [2] = assay: Tested in vitro for the antibacterial activity against Staphylococcus aureus strain S 13 E; assay type: functional
Streptococcus pyogenes = assay: Tested in vitro for the antibacterial activity against Streptococcus pyogenes strain C 203; assay type: functional
Enterobacter cloacae [3] = assay: Tested in vitro for the antibacterial activity against Enterobacter cloacae strain EB 5; assay type: functional
Escherichia coli [4] = assay: Tested in vitro for the beta lactamase inhibition of Escherichia coli TEM; assay type: functional
Enterococcus [5] = assay: Tested in vitro for the antibacterial activity against Enterococcus sp. strain 2041; assay type: functional
Staphylococcus aureus [6] = assay: Tested in vitro for the antibacterial activity against Staphylococcus aureus strain X 400; assay type: functional
Shigella sonnei = assay: Tested in vitro for the antibacterial activity against Shigella sonnei strain N 9; assay type: functional
Klebsiella [7] = assay: Tested in vitro for the antibacterial activity against Klebsiella sp. strain X 68; assay type: functional
Staphylococcus aureus [8] = assay: Tested in vitro for the antibacterial activity against Staphylococcus aureus strain V 41; assay type: functional
Enterobacter cloacae [9] = assay: Tested in vitro for the beta lactamase inhibition of Enterobacter cloacae; assay type: functional, organism-based
Enterococcus [10] = assay: Tested in vitro for the antibacterial activity against Enterococcus sp. strain X 66; assay type: functional
Haemophilus influenzae [11] = assay: Tested in vitro for the antibacterial activity against Haemophilus influenzae (b-lac+) strain 76; assay type: functional
Escherichia coli [12] = assay: Tested in vitro for the antibacterial activity against Escherichia coli strain EC 14; assay type: functional
Enterobacter cloacae [13] = assay: Tested in vitro for the antibacterial activity against Enterobacter cloacae strain 265 A; assay type: functional
Staphylococcus aureus [14] = assay: Tested in vitro for the antibacterial activity against Staphylococcus aureus strain X 1.1; assay type: functional
Klebsiella aerogenes [15] = assay: Tested in vitro for the antibacterial activity against Enterobacter aerogenes strain EB 17; assay type: functional
Haemophilus influenzae [16] = assay: Tested in vitro for the antibacterial activity against Haemophilus influenzae (b-lac-) strain CL; assay type: functional
Providencia rettgeri = assay: Tested in vitro for the antibacterial activity against Providencia rettgeri strain C 24; assay type: functional
Klebsiella aerogenes [17] = assay: Tested in vitro for the antibacterial activity against Enterobacter aerogenes strain C 32; assay type: functional
Citrobacter freundii [18] = assay: Tested in vitro for the antibacterial activity against Citrobacter freundii strain CF 17; assay type: functional
Escherichia coli [19] = assay: Tested in vitro for the antibacterial activity against Escherichia coli strain N 10; assay type: functional
[20] = tested on: Staphylococcus epidermidis; assay: Tested in vitro for the antibacterial activity against Staphylococcus epidermidis strain 270; assay type: functional
Streptococcus pneumoniae = assay: Tested in vitro for the antibacterial activity against Streptococcus pneumoniae strain Park I; assay type: functional
Providencia stuartii [21] = assay: Tested in vitro for the antibacterial activity against Providencia stuartii strain PR 33; assay type: functional
Klebsiella [22] = assay: Tested in vitro for the antibacterial activity against Klebsiella sp. strain X 26; assay type: functional
Serratia marcescens [23] = assay: Tested in vitro for the antibacterial activity against Serratia marcescens strain X 99; assay type: functional
Acinetobacter = assay: Tested in vitro for the antibacterial activity against Acinetobacter sp. strain AC 12; assay type: functional
Salmonella [24] = assay: Tested in vitro for the antibacterial activity against Salmonella sp. strain X 514; assay type: functional
Klebsiella [25] = assay: Tested in vitro for the antibacterial activity against Klebsiella sp. strain KAE; assay type: functional
Morganella morganii = assay: Tested in vitro for the antibacterial activity against Morganella morganii strain PR 15; assay type: functional
Serratia marcescens [26] = assay: Tested in vitro for the antibacterial activity against Serratia marcescens strain SE 3; assay type: functional
Salmonella [27] = assay: Tested in vitro for the antibacterial activity against Salmonella sp. strain 1335; assay type: functional
[28] = tested on: Staphylococcus epidermidis; assay: Tested in vitro for the antibacterial activity against Staphylococcus epidermidis strain 222; assay type: functional
Providencia stuartii [29] = assay: […] Tested in vitro for the antibacterial activity against Providencia stuartii strain PR 33; assay type: functional
Citrobacter freundii [30] = assay: Tested in vitro for the antibacterial activity against Citrobacter freundii strain CF17; assay type: functional
[31] = Half-life was determined; assay type: ADME; conditions: human

Row | MIC (Escherichia coli [1]) | MIC (Staphylococcus aureus [2]) | MIC (Streptococcus pyogenes) | MIC (Enterobacter cloacae [3]) | IC50 (Escherichia coli [4]) | MIC (Enterococcus [5]) | MIC (Staphylococcus aureus [6]) | MIC (Shigella sonnei) | MIC (Klebsiella [7]) | MIC (Staphylococcus aureus [8]) | IC50 (Enterobacter cloacae [9]) | MIC (Enterococcus [10]) | MIC (Haemophilus influenzae [11]) | MIC (Escherichia coli [12]) | MIC (Enterobacter cloacae [13]) | MIC (Staphylococcus aureus [14]) | MIC (Klebsiella aerogenes [15]) | MIC (Haemophilus influenzae [16]) | MIC (Providencia rettgeri) | MIC (Klebsiella aerogenes [17]) | Structure (SMILES) | further results
1 | 4 µg/mL | 1 µg/mL | 0.06 µg/mL | 32 µg/mL | 3 µM | 16 µg/mL | 2 µg/mL | 4 µg/mL | 2 µg/mL | 1 µg/mL | 0.002 µM | 2 µg/mL | 0.5 µg/mL | 4 µg/mL | 32 µg/mL | 0.25 µg/mL | 32 µg/mL | 0.5 µg/mL | 4 µg/mL | 8 µg/mL | C[C@@H](O)[C@H]1C(=O)N2C(C(=O)[O-])=C(C(C)(C)C)O[C@H]12.[K+] | MIC (Citrobacter freundii [18]): 16 µg/mL; MIC (Escherichia coli [19]): 4 µg/mL; MIC [20]: 4 µg/mL; MIC (Streptococcus pneumoniae): 0.03 µg/mL; MIC (Providencia stuartii [21]): 4 µg/mL; MIC (Klebsiella [22]): 1 µg/mL; MIC (Serratia marcescens [23]): 16 µg/mL; MIC (Acinetobacter): 8 µg/mL; MIC (Salmonella [24]): 1 µg/mL; MIC (Klebsiella [25]): 4 µg/mL; MIC (Morganella morganii): 8 µg/mL; MIC (Serratia marcescens [26]): 64 µg/mL; MIC (Salmonella [27]): 4 µg/mL; MIC [28]: 0.25 µg/mL
2 | 128 µg/mL | 4 µg/mL | 0.12 µg/mL | 128 µg/mL | 0.05 µM | 32 µg/mL | 4 µg/mL | 64 µg/mL | 64 µg/mL | 1 µg/mL | 0.3 µM | 16 µg/mL | 8 µg/mL | 128 µg/mL | 128 µg/mL | 0.5 µg/mL | 128 µg/mL | 8 µg/mL | 8 µg/mL | 128 µg/mL | C[C@@H](O)[C@H]1C(=O)N2C(C(=O)[O-])=C(C(C)(C)C)S[C@H]12.[K+] | MIC (Citrobacter freundii [18]): 128 µg/mL; MIC (Escherichia coli [19]): 64 µg/mL; MIC [20]: 0.5 µg/mL; MIC (Streptococcus pneumoniae): 0.12 µg/mL; MIC (Providencia stuartii [21]): 32 µg/mL; MIC (Klebsiella [22]): 8 µg/mL; MIC (Serratia marcescens [23]): 128 µg/mL; MIC (Acinetobacter): 16 µg/mL; MIC (Salmonella [24]): 32 µg/mL; MIC (Klebsiella [25]): 64 µg/mL; MIC (Morganella morganii): 32 µg/mL; MIC (Serratia marcescens [26]): 128 µg/mL; half-life [31]: 16 days; MIC (Salmonella [27]): 128 µg/mL; MIC [28]: 2 µg/mL
3 |  |  |  |  | 0.04 µM |  |  |  |  |  | 100 µM |  |  |  |  |  |  |  |  |  | O=C(O)[C@H]1/C(=C/CO)O[C@@H]2CC(=O)N21 [CLAVULANIC ACID] | 

Row | Structure (SMILES) | MIC (Escherichia coli [1]) | MIC (Staphylococcus aureus [2]) | MIC (Streptococcus pyogenes) | MIC (Enterobacter cloacae [3]) | IC50 (Escherichia coli [4]) | MIC (Enterococcus [5]) | MIC (Staphylococcus aureus [6]) | MIC (Shigella sonnei) | MIC (Klebsiella [7]) | MIC (Staphylococcus aureus [8]) | IC50 (Enterobacter cloacae [9]) | MIC (Enterococcus [10]) | MIC (Haemophilus influenzae [11]) | MIC (Escherichia coli [12]) | MIC (Enterobacter cloacae [13]) | MIC (Staphylococcus aureus [14]) | MIC (Klebsiella aerogenes [15]) | MIC (Haemophilus influenzae [16]) | MIC (Providencia rettgeri) | MIC (Klebsiella aerogenes [17]) | further results
4 | CC(C)(O/N=C(\C(=O)N[C@@H]1C(=O)N2C(C(=O)[O-])=C(C[n+]3ccccc3)CS[C@H]12)c1csc(N)n1)C(=O)O [CEFTAZIDIME] | 0.03 µg/mL (≈ 0.0549 µM) | 64 µg/mL (≈ 117 µM) | 0.06 µg/mL (≈ 0.11 µM) | 0.12 µg/mL (≈ 0.22 µM) |  | 16 µg/mL (≈ 29.3 µM) | 64 µg/mL (≈ 117 µM) | 0.03 µg/mL (≈ 0.0549 µM) | 0.12 µg/mL (≈ 0.22 µM) | 8 µg/mL (≈ 14.6 µM) |  | 128 µg/mL (≈ 234 µM) | 0.03 µg/mL (≈ 0.0549 µM) | 0.03 µg/mL (≈ 0.0549 µM) | 32 µg/mL (≈ 58.5 µM) | 8 µg/mL (≈ 14.6 µM) | 0.12 µg/mL (≈ 0.22 µM) | 0.06 µg/mL (≈ 0.11 µM) | 0.03 µg/mL (≈ 0.0549 µM) | 2 µg/mL (≈ 3.66 µM) | MIC (Providencia stuartii [29]): 0.06 µg/mL (≈ 0.11 µM); MIC (Escherichia coli [19]): 0.06 µg/mL (≈ 0.11 µM); MIC [20]: 16 µg/mL (≈ 29.3 µM); MIC (Citrobacter freundii [30]): 0.5 µg/mL (≈ 0.915 µM); MIC (Streptococcus pneumoniae): 0.03 µg/mL (≈ 0.0549 µM); MIC (Klebsiella [22]): 0.06 µg/mL (≈ 0.11 µM); MIC (Serratia marcescens [23]): 0.12 µg/mL (≈ 0.22 µM); MIC (Acinetobacter): 1 µg/mL (≈ 1.83 µM); MIC (Salmonella [24]): 0.06 µg/mL (≈ 0.11 µM); MIC (Klebsiella [25]): 0.5 µg/mL (≈ 0.915 µM); MIC (Morganella morganii): 0.25 µg/mL (≈ 0.457 µM); MIC (Serratia marcescens [26]): 0.06 µg/mL (≈ 0.11 µM); MIC (Salmonella [27]): 0.25 µg/mL (≈ 0.457 µM); MIC [28]: 16 µg/mL (≈ 29.3 µM)
